These results are taken from patent US9914908B2, “Method of introducing a toxin or dye into mammalian pluripotent cells using rBC2LCN” (National Institute of Advanced Industrial Science and …, priority 2013, dated 2018).

Common to all, as to conditions: read-out: dissociation constant (Kd)
The target of assay [1] is T1, rBC2LCN (recombinant BC2LCN lectin, N-terminal domain of BC2L-C protein, Burkholderia cenocepacia), wild-type, SEQ ID NO: 1 (Burkholderia cenocepacia, UniProt B4EH86).
T1 sequence (B4EH86 1-156): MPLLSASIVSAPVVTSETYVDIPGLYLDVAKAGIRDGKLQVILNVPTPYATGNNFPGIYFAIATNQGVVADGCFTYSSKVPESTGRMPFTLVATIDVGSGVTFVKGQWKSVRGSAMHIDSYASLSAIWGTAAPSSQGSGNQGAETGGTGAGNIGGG
In words: Binding affinity of wild-type rBC2LCN to sugar chain ligands by frontal affinity chromatography. The text has this: (§1) The binding affinities of rBC2LCN-ETA and wild-type rBC2LCN to “Fucα1-2Galβ1-3GlcNAc (H type 1)” and “Fucα1-2Galβ1-3GalNAc (H type 3)” as sugar chain ligands for rBC2LCN were examined by frontal affinity chromatography (Non Patent Literature 8). The results are shown below (Table 1).

Assay [2] deals with T2, rBC2LCN-ETA fusion protein, rBC2LCN-(GSGGG)2-ETA (Burkholderia cenocepacia rBC2LCN, SEQ ID NO: 1, fused through spacer GSGGG, SEQ ID NO: 3, to cell-killing doma (Burkholderia cenocepacia, UniProt B4EH86)).
T2 construct: E. coli
In words: Binding affinity of rBC2LCN-ETA fusion protein to sugar chain ligands by frontal affinity chromatography. Details: species or system Burkholderia cenocepacia / Pseudomonas aeruginosa.
Description: as §1

Assay [3] concerns the target T3, rBC2LCN-ETA fusion protein, rBC2LCN-(GSGGG)2-ETA (Burkholderia cenocepacia rBC2LCN, SEQ ID NO: 1, fused through spacer GSGGG, SEQ ID NO: 3, to cell-killing domain of Pseudomonas aeruginosa exotoxin A, SEQ ID NO: 2) (Burkholderia cenocepacia, UniProt B4EH86).
T3 construct: E. coli
Described as above.
Description: as §1

For `CC(=O)N[C@H]1[C@@H](Oc2ccc([N+](=O)[O-])cc2)O[C@H](CO)[C@H](O)[C@@H]1O[C@@H]1O[C@H](CO)[C@H](O)[C@H](O)[C@H]1O[C@@H]1O[C@@H](C)[C@@H](O)[C@@H](O)[C@@H]1O` [H type 3, Fucα1-2Galβ1-3GalNAc], the results for the Kd in assay [1] and in assay [2] were 25.4 µM and 32.3 µM, respectively.

On to `CC(=O)N[C@H]1[C@@H](Oc2ccc([N+](=O)[O-])cc2)O[C@H](CO)[C@H](O)[C@@H]1O[C@@H]1O[C@H](CO)[C@H](O)[C@H](O)[C@H]1O[C@@H]1O[C@@H](C)[C@@H](O)[C@@H](O)[C@@H]1O` [H type3-pNP], for which the figures for the equilibrium dissociation constant (Kd) in assay [1] and in assay [2] were 32.3 µM and 25.4 µM, respectively.

With `CC(=O)N[C@H]1[C@H](Oc2ccc([N+](=O)[O-])cc2)O[C@H](CO)[C@@H](O)[C@@H]1O[C@@H]1O[C@H](CO)[C@H](O)[C@H](O)[C@H]1O[C@@H]1O[C@@H](C)[C@@H](O)[C@@H](O)[C@@H]1O` [H type1-pNP], the Kd was 9.9 µM in assay [1] and 8.3 µM in assay [3].

One may read the Kd as the concentration at which binding is half-saturated.
